Literature values, collected in patent US8383645B2 (Teva Pharmaceutical Industries, Ltd., priority 2006, dated 2013).

Test system: acute experimental autoimmune encephalomyelitis (aEAE) model
Conditions: U.S. Pat. No. 6,077,851

Compound: CCN(C(=O)c1c(O)c2c(Cl)cccc2n(C)c1=O)c1ccccc1 [Laquinimod, N-ethyl-N-phenyl-1,2-dihydro-4-hydroxy-5-chloro-1-methyl-2-oxoquinoline-3-carboxamide]
- effectiveness in the aEAE model: effective
